Here are results for 4 molecules from patent US8461360B2, “Process for producing γ -mangostin” (Laila Nutraceuticals, priority 2008, dated 2013).

Assay [1] can be described thus: Superoxide radical scavenging activity (NBT method). The following applies: riboflavin/NBT, 560 nm. The class given is biochemical. On the procedure: Superoxide radical scavenging activity of test substances was determined by the method of McCord and Fridovich (J. Biol. Chem., 244, 6049, 1969). The assay mixture contained EDTA (6.6 mM containing 3 μg NaCN), riboflavin (2 μM), NBT (50 μM), phosphate buffer (67 mM, pH 7.8) in a final volume of 3 mL and various concentrations of test substances. The tubes were mixed well and optical densities were measured at 560 nm. The tubes were uniformly illuminated with an incandescent lamp for 15 min. and the optical densities were measured again at 560 nm. The percentage inhibition of superoxide radical generation was measured by comparing the absorbance values of control and those of the test substances. The IC50 values were obtained from the plot drawn of the concentration (μg) verses percentage inhibition.

Assay [2] can be described thus: DPPH free radical scavenging activity. The format is biochemical. Particulars: methanolic DPPH solution. As for the experimental part:
DPPH free radical scavenging activity was measured by the method of Lamaison, et al., (Pharma Acta Helv. 1991; 66:185) based on the reduction of colored methanolic solution of the DPPH. Free radical scavenging ability of each test substances added to the methanolic solution of DPPH was inversely proportional to the difference in initial and final absorption of DPPH solution at […] Antioxidant activity is expressed as the 50% inhibitory concentration (IC50). The reaction mixture contained 1×10^−4 mM methanolic solution of DPPH and various concentrations of the test substances. Percentage inhibition was determined by comparing the absorbance values of test and control tubes. The IC50 values were obtained from the plot drawn of the concentration (μg) verses percentage inhibition.

For assay [3], the system named is Freund Complete Adjuvant induced arthritis. In words: Freund Complete Adjuvant induced arthritis model, paw edema. Particulars: prednisolone 10 mg/kg body weight for 14 days, positive control; vs CMC control. The format is in vivo, Sprague Dawley rats. On the procedure: The anti-inflammatory efficacies of α-mangostin and γ-mangostin were evaluated by an in vivo study in Freund Complete Adjuvant induced arthritis model of Sprague Dawley rats. The rats of either sex were randomly selected and divided into […] containing five animals in each group. The treatment group rats were supplemented with 25 mg/kg body weight of α-mangostin or γ-mangostin, or prednisolone (10 mg/kg body weight) for 14 days. The animals of control group received similar volume of 1% CMC only. At the 14 th day, Freund Complete Adjuvant (FCA) was injected subcutaneously in the sub-plantar region of the left hind paw of each animal. At the end of experiment, the animals were sacrificed and liver tissue samples were excised and stored in aliquot at −80° C. Blood samples were collected from each animal at a regular interval and paw volumes were measured by Plethysmography equipment at the day of FCA injection and after 13 days of FCA inoculation. The difference in volume of edema at the day of FCA injection and at 13th day after induction is considered as the inflammatory response. The in vivo anti-inflammatory response of α-mangostin, γ-mangostin and prednisolone was estimated by calculating the percentage of inhibition of paw edema when compared with the CMC supplemented control.

In assay [4] the target is potato 5-lipoxygenase. In words: 5-Lipoxygenase enzyme inhibitory activity. The following applies: 80 μM linoleic acid, pH 6.3, absorbance 234 nm. The class given is biochemical. As for the experimental part: 5-Lipoxygenase enzyme inhibitory activity was measured using the method of Schewe, et. al. (Adv Enzymol, Vol 58: pp 191-272, 1986), that was modified by Reddanna, et. al., (Methods of Enzymology, Vol 187: pp 268-277, 1990). The assay mixture contained 80 μM linoleic acid and sufficient amount of potato 5-lipoxygenase in 50 mM phosphate buffer (pH 6.3). The reaction was initiated by the addition of enzyme buffer mix to linoleic acid and the enzyme activity was monitored as the increase in absorbance at 234 nm. The reaction was monitored for 120 sec and the inhibitory potential of the test substances was measured by incubating various concentrations of test substances α-mangostin and γ-mangostin two minutes before the addition of linoleic acid. All assays were performed three times. The IC50 values were calculated from the plot drawn of the concentrations of test substances versus percentage inhibition.

Assay [5] concerns aP2 (Adipocyte fatty acid binding protein). Nature of the assay: Down-regulation of aP2 protein expression in LPS induced THP-1 derived macrophages (Western blot). The format is cell-based, human. The following applies: 5 μg/ml pre-treatment 2 h, LPS 100 ng/ml 16 h, normalized with actin. As for the experimental part: Down-regulation of aP2 protein expression by γ-mangostin and α-mangostin was evaluated in a cell based in vitro model. Briefly, equal number of THP-1 monocyte cells were plated in 40 mm tissue culture petri-dishes and the cells were differentiated to macrophages by treatment with 10 nM Phorbol myristate acetate (PMA) for 24 h. The attached cells in the culture dishes were washed with serum free and phenol red free DMEM; and the differentiated macrophage cells were pre-treated for 2 h with 5 μg/ml of either γ-mangostin or α-mangostin or 0.1% DMSO in serum free DMEM supplemented with 2% BSA. Thereafter, the cells were primed with 100 ng/ml of LPS for 16 h to induce the inflammatory response. The 0.1% DMSO treated cells without LPS treatment were considered as vehicle control. […] The protein content was measured by Coomassie blue based Bradford method and equal amount of cellular protein lysates (2 μg) was resolved in 15% SDS-Polyacrylamide gels. […] The aP2 protein expression was specifically detected by chemiluminescent substrate (Pierce, USA); detection of chemiluminescent bands and densitometric analyses were carried out on Kodak 4000 MM image station (supplied by Kodak, USA). The same nitrocellulose blots were stripped and re-probed with anti-actin antibody (Sigma Chemical CO, USA) and actin protein expression was recorded as an indication of equal protein loading in each, lane. […]
Background: A western blot detects proteins with antibodies after separation by electrophoresis.

In assay [6] the test system is IKK. Particulars: Biochem. Pharmacol. reference; cited from earlier work.

Consider `O=C1O[C@H]([C@@H](O)CO)C(O)=C1O` [Vitamin C], for which the “NBT method IC50” value in assay [1] is 123.6 µg/mL. The “DPPH method IC50” value in assay [2] stood at 3.7 µg/mL.
Take `C[C@]12C=CC(=O)C=C1CC[C@@H]1[C@@H]2[C@@H](O)C[C@@]2(C)[C@H]1CC[C@]2(O)C(=O)CO` [prednisolone]: the “inhibition of paw edema” value in assay [3] is given as 54%.
For the molecule `COc1c(O)cc2oc3cc(O)c(CC=C(C)C)c(O)c3c(=O)c2c1CC=C(C)C` [α-Mangostin, 1,3,6-trihydroxy-7-methoxy-2,8-bis-(3-methyl-but-2-only) -xanthen-9-one], in assay [1], the “NBT method IC50” value worked out at 61.8 µg/mL. The “5-Lipoxygenase inhibitory activity IC50 values” in assay [4] was 2.7 µg/mL. For the same molecule, in assay [2], the “DPPH method IC50” value is over 100 µg/mL. The “inhibition of aP2 protein expression” value in assay [5] is on record as “inhibition of aP2 protein expression”.
Turning to `CC(C)=CCc1c(O)cc2oc3cc(O)c(O)c(CC=C(C)C)c3c(=O)c2c1O` [γ-Mangostin, 2,8-bis[(2E)-3-methylbut-2-only)-1,3,6,7-tetrahydroxyxanthen-9-one], the “NBT method IC50” value in assay [1] came out at 8.7 µg/mL. Also, in assay [6], the “inhibition of IKK activity” value is “directly inhibits IKK activity”. Moreover, the “5-Lipoxygenase inhibitory activity IC50 values” in assay [4] was found to be 0.5 µg/mL. Moreover, in assay [2], the “DPPH method IC50” value came out at 9.7 µg/mL. Further, in assay [5], the “inhibition of aP2 protein expression” value is listed as “more potent inhibitor of aP2 in vitro compared to α-mangostin”.
